Experimental data from ChEMBL document CHEMBL1134706, “Novel cytotoxic 7-iminomethyl and 7-aminomethyl derivatives of camptothecin” (Bioorg Med Chem Lett, 2001).

Key:
[1] = Partition coefficient (logP); assay type: physicochemical; conditions: octanol/water
NCI-H460 = experiment: In vitro cytotoxicity against H460 a human non-small lung carcinoma cell line after 1 hour drug exposure; assay type: functional, cell-based; conditions: NCI-H460, 1 h
[2] = In vivo antitumor activity in NSCLC H460 xenografted sc in athymic nude mice expressed as percent Body weight loss (BWL) at a dose of 18 mg/kg orally for q4dx4; assay type: functional, Mus musculus; conditions: route oral
[3] = In vivo antitumor activity in NSCLC H460 xenografted sc in athymic nude mice expressed as percent Body weight loss (BWL) at a dose of 2 mg/kg orally for q4dx4; assay type: functional, Mus musculus; conditions: route oral
[4] = In vivo antitumor activity in NSCLC H460 xenografted sc in athymic nude mice expressed as percent Body weight loss (BWL) at a dose of 6 mg/kg orally for q4dx4; assay type: functional, Mus musculus; conditions: route oral
[5] = In vivo antitumor activity in NSCLC H460 xenografted sc in athymic nude mice expressed as percent Tumor volume inhibition (TVI) at a dose of 18 mg/kg perorally for q4dx4; assay type: functional, Mus musculus; conditions: route oral
[6] = In vivo antitumor activity in NSCLC H460 xenografted sc in athymic nude mice expressed as percent Tumor volume inhibition (TVI) at a dose of 6 mg/kg perorally for q4dx4; assay type: functional, Mus musculus; conditions: route oral
[7] = In vivo antitumor activity in NSCLC H460 xenografted sc in athymic nude mice expressed as percent tumor volume inhibition (TVI) at a dose of 2 mg/kg perorally for q4dx4; assay type: functional, Mus musculus; conditions: route oral
[8] = In vivo antitumor activity in NSCLC H460 xenografted sc in athymic nude mice expressed as percent Body weight loss (BWL) at a dose of 15 mg/kg orally for q4dx4; assay type: functional, Mus musculus; conditions: route oral
[9] = In vivo antitumor activity in NSCLC H460 xenografted sc in athymic nude mice expressed as percent tumor volume inhibition (TVI) at a dose of 15 mg/kg perorally for q4dx4; assay type: functional, Mus musculus; conditions: route oral

Compound: CC[C@@]1(O)C(=O)OCc2c1cc1n(c2=O)Cc2c-1nc1ccccc1c2/C=N/c1ccc([N+](=O)[O-])cc1
- logP [1]: 2.34
- IC50 (NCI-H460): 280 nM

Compound: CC[C@@]1(O)C(=O)OCc2c1cc1n(c2=O)Cc2c-1nc1ccccc1c2/C=N/CCN(C)C
- logP [1]: 1.53
- IC50 (NCI-H460): 120 nM

Compound: CC[C@@]1(O)C(=O)OCc2c1cc1n(c2=O)Cc2c-1nc1ccccc1c2/C=N/CCCCO
- logP [1]: 1.57
- IC50 (NCI-H460): 360 nM

Compound: CC[C@@]1(O)C(=O)OCc2c1cc1n(c2=O)Cc2c-1nc1ccccc1c2CNCCN(C)C
- logP [1]: 0.89
- IC50 (NCI-H460): 450 nM

Compound: CC[C@@]1(O)C(=O)OCc2c1cc1n(c2=O)Cc2c-1nc1ccccc1c2CN=C(N)N
- logP [1]: -0.79
- IC50 (NCI-H460): 12600 nM

Compound: CC[C@@]1(O)C(=O)OCc2c1cc1n(c2=O)Cc2c-1nc1ccccc1c2/C=N/C1CCCCC1
- logP [1]: 3.08
- IC50 (NCI-H460): 370 nM

Compound: CC[C@@]1(O)C(=O)OCc2c1cc1n(c2=O)Cc2c-1nc1ccccc1c2/C=N/c1ccccc1
- logP [1]: 3.19
- IC50 (NCI-H460): 130 nM
- BWL [2]: 1%
- BWL [3]: 2%
- BWL [4]: 7%
- TVI [5]: 89%
- TVI [6]: 51%
- TVI [7]: 33%

Compound: CC[C@@]1(O)C(=O)OCc2c1cc1n(c2=O)Cc2c-1nc1ccccc1c2CN
- logP [1]: 0.37
- IC50 (NCI-H460): 2370 nM

Compound: CC[C@@]1(O)C(=O)OCc2c1cc1n(c2=O)Cc2c-1nc1ccccc1c2/C=N/Cc1ccccc1
- logP [1]: 3.26
- IC50 (NCI-H460): 280 nM

Compound: CC[C@@]1(O)C(=O)OCc2c1cc1n(c2=O)Cc2c-1nc1ccccc1c2/C=N/N=C(N)N
- logP [1]: 0.67
- IC50 (NCI-H460): 39300 nM

Compound: CC[C@@]1(O)C(=O)OCc2c1cc1n(c2=O)Cc2c-1nc1ccccc1c2CNc1ccccc1
- logP [1]: 2.56
- IC50 (NCI-H460): 310 nM

Compound: CC[C@@]1(O)C(=O)OCc2c1cc1n(c2=O)Cc2c-1nc1ccccc1c2CNC1CCCCC1
- logP [1]: 2.44
- IC50 (NCI-H460): 350 nM

Compound: CC[C@@]1(O)C(=O)OCc2c1cc1n(c2=O)Cc2cc3c(CN(C)C)c(O)ccc3nc2-1 [TOPOTECAN]
- IC50 (NCI-H460): 1380 nM
- BWL [8]: 12%
- TVI [9]: 95%
